The values below come from publication PMC8408635 (The Journal of Biological Chemistry, 2021).

For the assay, the system named is PniDAH7PS. The note with it: read-out: CM activity / KM, 50 mM BTP pH 7.4, 35 °C.

Structures are written as SMILES.

`C=C(O[C@@H]1C=C(C(=O)O)C=C[C@H]1O)C(=O)O` [chorismate]: the Km came out at 21 ± 2 µM.
